SMILES strings stand for the structures.

Test [1] deals with striatal tyrosine hydroxylase-immunoreactive fibres. The test can be described thus: MPTP-lesioned mouse model of Parkinson's disease, striatal TH fiber density. The class given is in vivo. As to conditions: 10 mg/kg s.c. in Intralipid once daily days 1-5, one hour prior to MPTP; analysis day seven. The source says:
MPTP (N-methyl-4-phenyl-1,2,3,6-tetrahydropyridine) is a systemically available neurotoxin specific to nigrostriatal dopaminergic neurons, i.e. to the cells that degenerate in human Parkinson's disease. Administration of MPTP to mice leads to a selective partial destruction of the mesotelencephalic dopaminergic projection, and to a loss of dopamine and dopaminergic fibres in the corpus striatum, which is the main forebrain target of midbrain dopaminergic neurons.
Young adult male CD1 albino mice (Harlan—Sprague Dawley; 22-25 g) were dosed i.p. with the dopamine cell-specific neurotoxin N-methyl-4-phenyl-1,2,3,6-tetrahydropyridine (MPTP hydrochloride, calculated as 34 mg/kg free base), dissolved in saline at a concentration of 3.4 mg/ml free base once daily on days one to five. […]
Blinded analysis of TH fiber density in the central striatum was performed at 630× magnification. […] The percentage of sample field covered by TH positive processes and terminals was calculated using an image analysis program (“Simple,” Compix Inc., Pittsburgh, Pa.). The mean striatal innervation density was calculated for each group. The magnitude of striatal deafferentation due to the MPTP lesion was assessed by dividing the observed striatal innervation values obtained in MPTP/vehicle treated cases by the mean striatal innervation density in the Vehicle/Vehicle group and expressed as % loss. […]

In the next test the target is human recombinant CyPA (Homo sapiens, UniProt P62937). Kind of test: Rotamase inhibition, chymotrypsin-coupled cuvette assay (asterisked values). The class given is biochemical. From the text: (§1) A number of substrates for rotamase are known in the art or can be derived from those known. Typically, the substrate contacts a sample containing a protein with rotamase activity and the conversion of the substrate is detected after a period of time. The method for detecting conversion of the substrate will vary with the particular substrate chosen. One method has been termed the Ki test (See Harding, et al., Nature, 341:758-760 (1989). The cis-trans isomerization of an alanine-proline bond in a model substrate, N-succinyl-Ala-Ala-Pro-Phe-p-nitroanilide, is monitored spectrophotometrically in a chymotrypsin-coupled assay. The action of chymotrypsin releases p-nitroaniline from only the trans form of the substrate. The amount of p-nitroaniline can be monitored in a spectrophotometer, for example. Other methods of detecting the presence of p-nitroaniline can also be used. The inhibition of this reaction caused by different concentrations of inhibitor is determined and the data are analyzed as a change in first-order rate constant as a function of inhibitor concentration, which yields the Ki value.
(§2) The following were added to a plastic cuvette: […] of ice cold assay buffer (25 mM HEPES, pH 7.8, 100 mM NaCl), 10 μL of CyP A (2.5 μM in 10 mM Tris-Cl pH 7.5, 100 mM NaCl, 1 mM dithiothreitol), 25 μL of chymotrypsin (50 mg/ml in 1 mM HCl), and 10 μL of test compound, at various concentrations, in dimethyl sulfoxide. The reaction was initiated by the addition of 5 μL of substrate (succinyl-Ala-Phe-Pro-Phe-para-nitroanilide, 5 mg/mL in 470 mM LiCl in trifluoroethanol). The absorbance at 390 nm versus time was monitored for 90 seconds using a spectrophotometer and the rate constants were determined from the absorbance versus time data files.
(§3) The IC50 values that were obtained for representative compounds in the following Table I refer to the concentration that inhibits 50% of the rotamase activity in a sample. […] The Cyclophilin utilized was a recombinant rat CyPA-GST fusion protein: CypA was amplified from rat brain cDNA using standard PCR methods, primed with the following sequences: 5′ CCCCCCGGGAGTCAACCCCACCGTGTTCTTCGA 3′ and 5′ GGAGATCTAGAGTTGTCCACAGTCGGAGATGGT 3′. The resulting fragment (573 base pairs) was cloned into pCRII and amplified. The CyP sequence was cut out with Smal and EcoRl and cloned into the Smal/EcoRl sites in pGEX2TK (Pharmacia). This plasmid was transformed into BL21 E. coli cells for expression of the GST-CyPA fusion protein.

For test [2], the target named is T1, recombinant rat CyPA-GST fusion protein (Rattus norvegicus, UniProt P10111).
T1 construct: made in house; host or cells: E. coli BL21
Kind of test: Rotamase (prolyl peptidyl cis-trans isomerase) inhibition, chymotrypsin-coupled cuvette assay. The class given is biochemical.
Text: as §1, §2, §3

The subject of test [3] is Sprague-Dawley rat lumbar spinal cord slices. The test can be described thus: Neuroprotection assay in spinal cord slice preparations (THA-induced cell death). The class given is cell-based. As to conditions: THA 200 μM + compound 10 μM. As to the method:
Neuroprotection Assay in Spinal Cord Slice Preparations: All cultures were derived from postnatal day 8 (P8) Sprague-Dawley rat lumbar spinal cord slices of 325 micron thickness, prepared using a commercially available Mcllwain tissue chopper. Each experiment consisted of two 6-well plates with 5 slices from 4 different animals per well. Media changes were performed every 3 to 4 days. Cultures were treated with THA [L(−)-threo-3-hydroxyaspartic acid; Tocris Cookson Inc., Ballwin, Mo.] at 200 μM+compound (10 μM) after one week in culture. The control was an untreated sample with 0.1% DMSO as vehicle. The THA control was a THA treated sample with 0.1% DMSO as vehicle. Two wells were used per condition. One media change with new THA and compounds was performed. […] Quantification of surviving neurons was performed on a Zeiss Axiovert microscope. Neuronal survival was determined by observing an intact neuronal cell body with processes located ventrally of the central canal in each hemisphere. […] Each hemisphere was counted individually. The statistics were performed with StatView™ software on a minimum of three different experiments per condition and significance was determined as compared to THA control. The percent of protection was determined from the average number of living neurons by the following equation: (drug treatment condition−THA control)/(Untreated control−THA control). […]

T1 sequence (P10111 2-164): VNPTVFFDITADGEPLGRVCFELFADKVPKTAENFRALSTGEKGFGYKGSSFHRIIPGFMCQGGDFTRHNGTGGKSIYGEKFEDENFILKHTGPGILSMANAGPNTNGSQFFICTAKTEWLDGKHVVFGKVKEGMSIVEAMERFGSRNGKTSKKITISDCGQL
Sequence of human recombinant CyPA (P62937 whole entry): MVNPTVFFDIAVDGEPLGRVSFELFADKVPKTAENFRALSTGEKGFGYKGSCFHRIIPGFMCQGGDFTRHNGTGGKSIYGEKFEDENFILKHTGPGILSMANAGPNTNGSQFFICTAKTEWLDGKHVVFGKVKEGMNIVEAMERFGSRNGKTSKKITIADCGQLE

A word on the IC50: it is the midpoint of a concentration-inhibition curve. For `O=C(Nc1cc(Cl)cc(Cl)c1)N[C@H]1CCCC[C@H]1NC(=O)Nc1cc(Cl)cc(Cl)c1` [Compound 15a], in test [1], the “protection of striatal tyrosine hydroxylase-immunoreactive fibres” value was found to be 72.4%. Besides, the results for the IC50 (on human recombinant CyPA; in test [2]) were 521 nM and 610 nM, respectively. Further, the “protection from THA-induced cell death” value in test [3] is “complete protection”. Moreover, the “SMI-32 immunoreactive neurons per ventral hemisphere” value in test [3] (untreated control 26.4±4.2, THA control 15.97±2.04, mean±standard error) is recorded as 26.5±2.7 cells/ventral hemisphere.

(Values after US20020127605A1 (priority 2000, published 2002).)
